Laboratory results published in patent US20070078263A1, “BIARYL SUBSTITUTED HETEROCYCLE INHIBITORS OF LTA4H FOR TREATING INFLAMMATION” (deCODE Chemistry, Inc., priority 2005, published 2007).
Structures can show the parent of a compound that is named as a salt.

Biological target: T1, human LTA4 hydrolase (Homo sapiens, UniProt P09960)
T1 construct: A human LTA4 hydrolase full-length cDNA clone (NM 000895) was purchased; His tag (6xHis of vector pDEST17); made in house; host or cells: Escherichia coli BL21-AI
T1 sequence (P09960 1-611): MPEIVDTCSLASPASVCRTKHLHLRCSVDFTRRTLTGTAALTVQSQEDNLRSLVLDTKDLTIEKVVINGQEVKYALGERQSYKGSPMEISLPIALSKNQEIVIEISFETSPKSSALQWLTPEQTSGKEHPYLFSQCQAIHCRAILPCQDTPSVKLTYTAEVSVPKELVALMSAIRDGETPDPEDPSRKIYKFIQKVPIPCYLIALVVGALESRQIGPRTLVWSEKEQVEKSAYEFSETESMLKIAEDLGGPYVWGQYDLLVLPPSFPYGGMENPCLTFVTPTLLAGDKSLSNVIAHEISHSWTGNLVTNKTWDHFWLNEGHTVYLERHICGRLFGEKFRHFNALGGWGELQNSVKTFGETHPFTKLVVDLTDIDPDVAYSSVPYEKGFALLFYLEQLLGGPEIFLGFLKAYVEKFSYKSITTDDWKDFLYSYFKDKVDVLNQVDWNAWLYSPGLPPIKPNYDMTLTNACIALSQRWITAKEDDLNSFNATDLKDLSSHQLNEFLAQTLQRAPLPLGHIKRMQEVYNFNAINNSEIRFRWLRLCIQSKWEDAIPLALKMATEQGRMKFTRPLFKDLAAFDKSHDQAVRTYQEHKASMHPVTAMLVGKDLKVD
Assay: In vitro assay testing inhibitory activity against purified recombinant human LTA4 hydrolase (LTB4 formed, LC-MS/MS);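 also: 200 nM enzyme preincubated 10 min at room temperature with serial inhibitor dilutions in pH 8.0 Tris buffer with BSA and 10% DMSO, then 2 µM LTA4 added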
Assay type: biochemical
Settings: not given

SMILES | IC50 [µM]
c1ccc(CNc2ccc(OC[C@H]3CCCN3)cc2)cc1 [Example 48, Benzyl-[4-((R)-1-pyrrolidin-2-ylmethoxy)-phenyl]-amine] | < 5

Same assay, conditions: recombinant human LTA4 hydrolase 200 nM, LTA4 2 μM; read-out: AvgIC50

SMILES | IC50 [µM]
O=C(O)CN1CCC[C@@H]1COc1ccc(Oc2ccc(Cl)cc2)cc1 [Example 18, {(R)-2-[4-(4-Chloro-phenoxy)-phenoxymethyl]-pyrrolidin-1-yl}-acetic acid hydrochloride] | < 5
FC(F)(F)c1cccc(COc2ccc(OC[C@H]3CCCN3)cc2)c1 [Example 96, (R)-2-[4-(3-Trifluoromethyl-benzyloxy)-phenoxymethyl]-pyrrolidine Hydrogen chloride salt] | 5 to 20
c1coc(-c2ccc(Cc3ccc(OC[C@H]4CCCN4)cc3)cc2)n1 [Example 152, 2-{4-[4-((R)-1-Pyrrolidin-2-ylmethoxy)-benzyl]-phenyl}-oxazole] | < 5
O=C(O)CCN1CCC[C@@H]1COc1ccc(Oc2ccc(C(F)(F)F)cc2)cc1 [Example 29, (R)-2-[4-(4-trifluoromethyl-phenoxy)-phenoxymethyl]-pyrrolidine-1-yl}propionic acid sodium salt] | < 5
N#Cc1ccc(Oc2ccc(OC[C@H]3CCCN3)cc2)cc1 [Example 15, 4-[4-((R)-1-Pyrrolidin-2-ylmethoxy)-phenoxy]-benzonitrile hydrochloride] | < 5
O=C(O)CCN1CCC[C@H]1COc1ccc(Cc2ccccc2)cc1 [Example 34, 3-[(S)-2-(4-Benzyl-phenoxymethyl)-pyrrolidin-1-yl]-propionic acid HCl salt] | 5 to 20
O=C(O)CCCN1CCC[C@@H]1COc1ccc(Cc2ccc(-c3ccco3)cc2)cc1 [Example 114, 4-{(R)-2-[4-(4-furan-2-yl-benzyl)-phenoxymethyl]-pyrrolidin-1-yl}-butyric acid hydrogen chloride salt] | < 5
O=C(O)CCCN1CCC[C@@H]1COCc1ccc(Cc2ccccc2)cc1 [Example 157, 4-[(R)-2-(4-Benzyl-benzyloxymethyl)pyrrolidin-1-yl]butylic acid hydrochloride salt] | < 5
c1coc(-c2ccc(Oc3ccc(OC[C@H]4CCCN4)cc3)cc2)n1 [Example 148, hydrochloride salt] | < 5
c1cc(-c2ccc(Cc3ccc(OC[C@H]4CCCN4)cc3)cc2)ccn1 [Example 125, 4-{4-[4-((R)-1-Pyrrolidin-2-ylmethoxy)-benzyl]-phenyl}-pyridine hydrogen chloride salt] | 5 to 20
c1ncc(-c2ccc(Oc3ccc(OC[C@H]4CCCN4)cc3)cc2)o1 [Example 132, 5-{4-[4((R)-1-Pyrrolidin-2-ylmethoxy)-phenoxy]-phenyl}-oxazole, hydrogen chloride salt] | 5 to 20
Ic1ccc(Cc2ccc(OC[C@@H]3CCCN3)cc2)cc1 [Example 121, (S)-2-[4-(4-Iodo-benzyl)-phenoxymethyl]-pyrrolidine] | < 5
O=C1CC[C@@H](COc2ccc(Cc3ccccc3)cc2)N1 [Example 83, (S) 5-(4-Benzyl-phenoxymethyl)-pyrrolidin-2-one hydrochloride salt] | < 5
c1cncc(-c2ccc(Cc3ccc(OC[C@H]4CCCN4)cc3)cc2)c1 [Example 126, 3-{4-[4-((R)-1-Pyrrolidin-2-ylmethoxy)-benzyl]-phenyl}-pyridine] | 5 to 20
O=C1CC[C@H](COc2ccc(Cc3ccccc3)cc2)N1 [Example 84, (R) 5-(4-Benzyl-phenoxymethyl)-pyrrolidin-2-one] | < 5
c1ccc(Oc2ccc(OC[C@H]3CCCN3)cc2)cc1 [Example 45, (R)-2-(4-Phenoxy-phenoxymethyl)-pyrrolidine] | < 5
OCCCCN1CCC[C@H]1COc1ccc(Cc2ccccc2)cc1 [Example 33, 4-[(S)-2-(4-Benzyl-phenoxymethyl)-pyrrolidin-1-yl]-butan-1-ol] | < 5

SMILES | IC50 [µM]
Clc1ccc(Oc2ccc(OC[C@@H]3CCCCN3Cc3ncno3)cc2)cc1 [Example 63, (S)-2-[4-(4-Chloro-phenoxy)-phenoxymethyl]-1-[1,2,4]oxadiazol-5-ylmethyl-piperidine hydrochloride] | < 5
c1ccc(Cc2ccc(OC[C@H]3CCCN3Cc3ccncc3)cc2)cc1 [Example 6, 4-[(R)-2-(4-benzyl-phenoxymethyl)-pyrrolidin-1-ylmethyl]-pyridine] | < 5
c1ccc(Oc2ccc(OCC3CNCCN3)cc2)cc1 (stereo not shown) [Example 76, dihydrochloride] | < 5
O=C(O)CN1CCC[C@H]1COc1ccc(Cc2ccccc2)cc1 [Example 36, [(S)-2-(4-Benzyl-phenoxymethyl)-pyrrolidin-1-yl]-acetic acid TFA salt] | < 5
O=C(O)CCN1CCC[C@@H]1COc1ccc(Oc2ccncc2)cc1 [Example 145, 3-{(R)-2-[4-(Pyridin-4-yloxy)-phenoxymethyl]-pyrrolidin-1-yl}-propionic acid] | < 5
O=C(O)CCCN1CCC[C@@H]1COc1ccc(Cc2ccc(-c3ccc(Cl)s3)cc2)cc1 [Example 116, (R)-2-{4-[4-(5-chloro-thiophen-2-yl)-benzyl]-phenoxymethyl}-pyrrolidin-1-yl}-butyric hydrogen chloride salt] | < 5
CC(=O)NCCCN1CCC[C@H]1COc1ccc(Oc2ccc(Cl)cc2)cc1 [Example 38, N-(3-{(S)-2-[4-(4-Chloro-phenoxy)-phenoxymethyl]-pyrrolidin-1-yl}-propyl)-acetamide HCl] | < 5
c1ccc(Cc2ccc(OC[C@@H]3CCCN3)nc2)cc1 [Example 142, 5-Benzyl-2-((S)-1-pyrrolidin-2-ylmethoxy)-pyridine hydrochloride salt] | < 5
COC(=O)CCN1CCC[C@@H]1COc1ccc(Cc2ccccc2)cc1 [Example 7, 3-[(R)-2-(4-benzyl-phenoxymethyl)-pyrrolidin-1-yl]-propionic acid methyl ester] | < 5
COc1ccc2nc(Oc3ccc(OC[C@H]4CCCN4)cc3)sc2c1 [Example 102, (R)-2-[4-(6-Methoxy-benzothiazol-2-yloxy)-phenoxymethyl]-pyrrolidine-Hydrogen chloride salt] | < 5
Clc1ccc(Cc2ccc(OCC3CCCCN3)cc2)cc1 (stereo in doubt) [Example 165, (S)-2-[4-(4-Chlorobenzyl)-phenoxymethyl]-piperidine hydrochloride] | < 5
COC(=O)CCN1CCCC[C@H]1COc1ccc(Oc2ccc(Cl)cc2)cc1 [Example 58, 3-{(S)-2-[4-(4-Chloro-phenoxy)-phenoxymethyl]-piperidin-1-yl}-propionic acid methyl ester] | < 5
c1ccc(Cc2ccc(OCC[C@@H]3CCCCN3)cc2)cc1 [Example 71, (S)-2-[(4-Benzylphenoxy)ethyl]-piperidine hydrochloride] | < 5
O=C(O)CCCN1CCC[C@@H]1COc1ccc(Cc2ccc(-c3ccccc3)s2)cc1 [Example 160, 4-{(R)-2-[4-(5-Phenyl-thiophen-2-ylmethyl)-phenoxymethyl]-pyrrolidin-1-yl}-butyric acid] | < 5
c1cc(Oc2ccc(OC[C@H]3CCCN3)cc2)ccn1 [Example 144, 4-[4-((R)-1-Pyrrolidin-2-ylmethoxy)-phenoxy]-pyridine] | < 5
FC(F)(F)c1ccc(COc2ccc(OC[C@H]3CCCN3)cc2)cc1 [Example 95, (R)-2-[4-(4-Trifluoromethyl-benzyloxy)-phenoxymethyl]-pyrrolidine Hydrogen chloride salt] | < 5
